From the NIST ThermoML archive (doi:10.1021/je300873x)
Numbers after ± are expanded uncertainties.

Assay: mn = molality of the nth substance listed, in mol/kg
Details: for surface tension liquid-gas: Pendant drop shape; for electrical conductivity: Liquid, Digital conductivity meter

CCCCCCCCCCCCCCCC[N+](C)(C)CCO.[Br-] [N-cetyl-hydroxyethyl-dimethyl ammonium bromide] + O
surface tension liquid-gas (298.15 K, m1 = 0.00016): 61.83 ± 0.56 mN/m | surface tension liquid-gas (298.15 K, m1 = 0.00033): 53.61 ± 0.49 mN/m | surface tension liquid-gas (298.15 K, m1 = 0.00049): 45.49 ± 0.43 mN/m | surface tension liquid-gas (298.15 K, m1 = 0.00059): 41.63 ± 0.4 mN/m | surface tension liquid-gas (298.15 K, m1 = 0.00069): 39.31 ± 0.38 mN/m | surface tension liquid-gas (298.15 K, m1 = 0.00074): 38.39 ± 0.38 mN/m | surface tension liquid-gas (298.15 K, m1 = 0.00078): 37.61 ± 0.37 mN/m | surface tension liquid-gas (298.15 K, m1 = 0.00083): 37.58 ± 0.37 mN/m | surface tension liquid-gas (298.15 K, m1 = 0.00088): 37.3 ± 0.37 mN/m | surface tension liquid-gas (298.15 K, m1 = 0.00098): 37.24 ± 0.37 mN/m | surface tension liquid-gas (298.15 K, m1 = 0.00108): 37.15 ± 0.37 mN/m | surface tension liquid-gas (298.15 K, m1 = 0.00118): 37.12 ± 0.37 mN/m | electrical conductivity (298.15 K, m1 = 0.00075): 0.0068 ± 0.0001 S/m | electrical conductivity (298.15 K, m1 = 0.00078): 0.007 ± 0.0001 S/m | electrical conductivity (298.15 K, m1 = 0.00081): 0.0072 ± 0.0001 S/m | electrical conductivity (298.15 K, m1 = 0.00084): 0.0074 ± 0.0001 S/m | electrical conductivity (298.15 K, m1 = 0.00088): 0.0076 ± 0.0001 S/m | electrical conductivity (298.15 K, m1 = 0.00092): 0.0078 ± 0.0001 S/m | electrical conductivity (298.15 K, m1 = 0.00096): 0.0079 ± 0.0001 S/m | electrical conductivity (298.15 K, m1 = 0.00101): 0.008 ± 0.0001 S/m | electrical conductivity (298.15 K, m1 = 0.00106): 0.0082 ± 0.0001 S/m | electrical conductivity (298.15 K, m1 = 0.00112): 0.0084 ± 0.0001 S/m | electrical conductivity (298.15 K, m1 = 0.00119): 0.0085 ± 0.0001 S/m | electrical conductivity (298.15 K, m1 = 0.00126): 0.0087 ± 0.0001 S/m | electrical conductivity (298.15 K, m1 = 0.00135): 0.0089 ± 0.0001 S/m | electrical conductivity (298.15 K, m1 = 0.00144): 0.0091 ± 0.0001 S/m | electrical conductivity (298.15 K, m1 = 0.00156): 0.0094 ± 0.0001 S/m | electrical conductivity (298.15 K, m1 = 0.00169): 0.0097 ± 0.0001 S/m | electrical conductivity (298.15 K, m1 = 0.00184): 0.0101 ± 0.0001 S/m | electrical conductivity (298.15 K, m1 = 0.00202): 0.0105 ± 0.0001 S/m | electrical conductivity (303.15 K, m1 = 0.00075): 0.0076 ± 0.0001 S/m | electrical conductivity (303.15 K, m1 = 0.00078): 0.0078 ± 0.0001 S/m | electrical conductivity (303.15 K, m1 = 0.00081): 0.0081 ± 0.0001 S/m | electrical conductivity (303.15 K, m1 = 0.00084): 0.0083 ± 0.0001 S/m | electrical conductivity (303.15 K, m1 = 0.00088): 0.0085 ± 0.0001 S/m | electrical conductivity (303.15 K, m1 = 0.00092): 0.0088 ± 0.0001 S/m | electrical conductivity (303.15 K, m1 = 0.00096): 0.009 ± 0.0001 S/m | electrical conductivity (303.15 K, m1 = 0.00101): 0.0091 ± 0.0001 S/m | electrical conductivity (303.15 K, m1 = 0.00106): 0.0093 ± 0.0001 S/m | electrical conductivity (303.15 K, m1 = 0.00112): 0.0095 ± 0.0001 S/m | electrical conductivity (303.15 K, m1 = 0.00119): 0.0097 ± 0.0001 S/m | electrical conductivity (303.15 K, m1 = 0.00126): 0.0099 ± 0.0001 S/m | electrical conductivity (303.15 K, m1 = 0.00135): 0.0101 ± 0.0001 S/m | electrical conductivity (303.15 K, m1 = 0.00144): 0.0104 ± 0.0001 S/m | electrical conductivity (303.15 K, m1 = 0.00155): 0.0107 ± 0.0001 S/m | electrical conductivity (303.15 K, m1 = 0.00168): 0.0111 ± 0.0001 S/m | electrical conductivity (303.15 K, m1 = 0.00184): 0.0114 ± 0.0001 S/m | electrical conductivity (303.15 K, m1 = 0.00202): 0.0119 ± 0.0001 S/m | electrical conductivity (308.15 K, m1 = 0.00075): 0.0083 ± 0.0001 S/m | electrical conductivity (308.15 K, m1 = 0.00078): 0.0086 ± 0.0001 S/m | electrical conductivity (308.15 K, m1 = 0.00081): 0.0089 ± 0.0001 S/m | electrical conductivity (308.15 K, m1 = 0.00084): 0.0092 ± 0.0001 S/m | electrical conductivity (308.15 K, m1 = 0.00088): 0.0095 ± 0.0001 S/m | electrical conductivity (308.15 K, m1 = 0.00092): 0.0097 ± 0.0001 S/m | electrical conductivity (308.15 K, m1 = 0.00096): 0.01 ± 0.0001 S/m | electrical conductivity (308.15 K, m1 = 0.00101): 0.0102 ± 0.0001 S/m | electrical conductivity (308.15 K, m1 = 0.00106): 0.0105 ± 0.0001 S/m | electrical conductivity (308.15 K, m1 = 0.00112): 0.0107 ± 0.0001 S/m | electrical conductivity (308.15 K, m1 = 0.00119): 0.0108 ± 0.0001 S/m | electrical conductivity (308.15 K, m1 = 0.00126): 0.0111 ± 0.0001 S/m | electrical conductivity (308.15 K, m1 = 0.00134): 0.0113 ± 0.0001 S/m | electrical conductivity (308.15 K, m1 = 0.00144): 0.0117 ± 0.0001 S/m | electrical conductivity (308.15 K, m1 = 0.00155): 0.012 ± 0.0001 S/m | electrical conductivity (308.15 K, m1 = 0.00168): 0.0125 ± 0.0001 S/m | electrical conductivity (308.15 K, m1 = 0.00183): 0.0129 ± 0.0001 S/m | electrical conductivity (308.15 K, m1 = 0.00202): 0.0134 ± 0.0001 S/m | electrical conductivity (313.15 K, m1 = 0.00077): 0.0094 ± 0.0001 S/m | electrical conductivity (313.15 K, m1 = 0.0008): 0.0098 ± 0.0001 S/m | electrical conductivity (313.15 K, m1 = 0.00084): 0.0101 ± 0.0001 S/m | electrical conductivity (313.15 K, m1 = 0.00087): 0.0105 ± 0.0001 S/m | electrical conductivity (313.15 K, m1 = 0.00091): 0.0108 ± 0.0001 S/m | electrical conductivity (313.15 K, m1 = 0.00096): 0.0111 ± 0.0001 S/m | electrical conductivity (313.15 K, m1 = 0.00101): 0.0114 ± 0.0001 S/m | electrical conductivity (313.15 K, m1 = 0.00106): 0.0118 ± 0.0001 S/m | electrical conductivity (313.15 K, m1 = 0.00112): 0.012 ± 0.0001 S/m | electrical conductivity (313.15 K, m1 = 0.00118): 0.0123 ± 0.0001 S/m | electrical conductivity (313.15 K, m1 = 0.00126): 0.0126 ± 0.0001 S/m | electrical conductivity (313.15 K, m1 = 0.00134): 0.0129 ± 0.0001 S/m | electrical conductivity (313.15 K, m1 = 0.00144): 0.0133 ± 0.0001 S/m | electrical conductivity (313.15 K, m1 = 0.00155): 0.0137 ± 0.0001 S/m | electrical conductivity (313.15 K, m1 = 0.00168): 0.0141 ± 0.0001 S/m | electrical conductivity (313.15 K, m1 = 0.00183): 0.0147 ± 0.0001 S/m | electrical conductivity (313.15 K, m1 = 0.00201): 0.0154 ± 0.0001 S/m | electrical conductivity (318.15 K, m1 = 0.00074): 0.0101 ± 0.0001 S/m | electrical conductivity (318.15 K, m1 = 0.00077): 0.0104 ± 0.0001 S/m | electrical conductivity (318.15 K, m1 = 0.0008): 0.0109 ± 0.0001 S/m | electrical conductivity (318.15 K, m1 = 0.00084): 0.0112 ± 0.0001 S/m | electrical conductivity (318.15 K, m1 = 0.00087): 0.0116 ± 0.0001 S/m | electrical conductivity (318.15 K, m1 = 0.00091): 0.0119 ± 0.0001 S/m | electrical conductivity (318.15 K, m1 = 0.00096): 0.0124 ± 0.0001 S/m | electrical conductivity (318.15 K, m1 = 0.001): 0.0128 ± 0.0001 S/m | electrical conductivity (318.15 K, m1 = 0.00106): 0.0132 ± 0.0001 S/m | electrical conductivity (318.15 K, m1 = 0.00112): 0.0137 ± 0.0001 S/m | electrical conductivity (318.15 K, m1 = 0.00118): 0.014 ± 0.0001 S/m | electrical conductivity (318.15 K, m1 = 0.00126): 0.0144 ± 0.0001 S/m | electrical conductivity (318.15 K, m1 = 0.00134): 0.0148 ± 0.0001 S/m | electrical conductivity (318.15 K, m1 = 0.00143): 0.0152 ± 0.0001 S/m | electrical conductivity (318.15 K, m1 = 0.00154): 0.0158 ± 0.0001 S/m | electrical conductivity (318.15 K, m1 = 0.00167): 0.0164 ± 0.0001 S/m | electrical conductivity (318.15 K, m1 = 0.00183): 0.0169 ± 0.0001 S/m | electrical conductivity (318.15 K, m1 = 0.00201): 0.0174 ± 0.0001 S/m | electrical conductivity (323.15 K, m1 = 0.00074): 0.0107 ± 0.0001 S/m | electrical conductivity (323.15 K, m1 = 0.00077): 0.0111 ± 0.0001 S/m | electrical conductivity (323.15 K, m1 = 0.0008): 0.0116 ± 0.0001 S/m | electrical conductivity (323.15 K, m1 = 0.00083): 0.012 ± 0.0001 S/m | electrical conductivity (323.15 K, m1 = 0.00087): 0.0124 ± 0.0001 S/m | electrical conductivity (323.15 K, m1 = 0.00091): 0.0129 ± 0.0001 S/m | electrical conductivity (323.15 K, m1 = 0.00095): 0.0134 ± 0.0001 S/m | electrical conductivity (323.15 K, m1 = 0.001): 0.014 ± 0.0001 S/m | electrical conductivity (323.15 K, m1 = 0.00105): 0.0143 ± 0.0001 S/m | electrical conductivity (323.15 K, m1 = 0.00111): 0.0151 ± 0.0001 S/m | electrical conductivity (323.15 K, m1 = 0.00118): 0.0157 ± 0.0001 S/m | electrical conductivity (323.15 K, m1 = 0.00125): 0.016 ± 0.0001 S/m | electrical conductivity (323.15 K, m1 = 0.00134): 0.0166 ± 0.0001 S/m | electrical conductivity (323.15 K, m1 = 0.00143): 0.0171 ± 0.0001 S/m | electrical conductivity (323.15 K, m1 = 0.00154): 0.0176 ± 0.0001 S/m | electrical conductivity (323.15 K, m1 = 0.00167): 0.0182 ± 0.0001 S/m | electrical conductivity (323.15 K, m1 = 0.00182): 0.0189 ± 0.0001 S/m | electrical conductivity (323.15 K, m1 = 0.002): 0.0196 ± 0.0001 S/m
